The source made the active and inactive calls. The rule behind the calls is not given here.
Assays:
Eca-109/VCR [1] = assay: Antiproliferative activity against human Eca-109/VCR cells assessed as cell viability at 5 uM incubated for 48 hrs by CCK-8 assay (reference value: 100 +/- 1.8%); type: functional; conditions: read-out: Activity
Eca-109/VCR [2] = assay: Reversal of vincristine resistance in human Eca-109/VCR cells assessed as reversal fold by measuring ratio of vincristine IC50 to vincristine IC50 in presence of test compound at 5 uM incubated for 48 hrs by CCK8 assay; type: functional
ECa-109 cell line = assay: Antiproliferative activity against human Eca-109 cells assessed as reduction in cell viability incubated for 48 hrs by CCK-8 assay; type: functional, cell-based; conditions: ECa-109, 48 h
Eca-109/VCR [3] = assay: Reversal of vincristine resistance in human Eca-109/VCR cells assessed as reduction in cell viability incubated for 48 hrs by CCK-8 assay; type: functional, cell-based
Eca-109/VCR [4] = assay: Induction of apoptosis in human Eca-109/VCR cells assessed as early apoptotic cells at 5 uM incubated for 48 hrs in presence of vincristine at 50 nM by Annexin V-FITC/DAPI staining based flow cytometry analysis (reference value: 1.33 %); type: functional
Eca-109/VCR [5] = assay: Induction of apoptosis in human Eca-109/VCR cells assessed as late apoptotic cells at 5 uM incubated for 48 hrs by Annexin V-FITC/DAPI staining based flow cytometry analysis (reference value: 4.31 %); type: functional
Eca-109/VCR [6] = assay: Induction of apoptosis in human Eca-109/VCR cells assessed as necrotic cells at 5 uM incubated for 48 hrs by Annexin V-FITC/DAPI staining based flow cytometry analysis (reference value: 0.073 %); type: functional
Eca-109/VCR [7] = assay: Induction of apoptosis in human Eca-109/VCR cells assessed as viable cells at 5 uM incubated for 48 hrs in presence of vincristine at 50 nM by Annexin V-FITC/DAPI staining based flow cytometry analysis (reference value: 93.5 %); type: functional; conditions: read-out: Activity
Eca-109/VCR [8] = assay: Induction of apoptosis in human Eca-109/VCR cells assessed as late apoptotic cells at 5 uM incubated for 48 hrs in presence of vincristine at 50 nM by Annexin V-FITC/DAPI staining based flow cytometry analysis (reference value: 5.06 %); type: functional
Eca-109/VCR [9] = assay: Induction of apoptosis in human Eca-109/VCR cells assessed as necrotic cells at 5 uM incubated for 48 hrs in presence of vincristine at 50 nM by Annexin V-FITC/DAPI staining based flow cytometry analysis (reference value: 0.062 %); type: functional
Eca-109/VCR [10] = assay: Induction of apoptosis in human Eca-109/VCR cells assessed as viable cells at 5 uM incubated for 48 hrs by Annexin V-FITC/DAPI staining based flow cytometry analysis (reference value: 94.6 %); type: functional; conditions: read-out: Activity
Eca-109/VCR [11] = assay: Induction of apoptosis in human Eca-109/VCR cells assessed as early apoptotic cells at 5 uM incubated for 48 hrs by Annexin V-FITC/DAPI staining based flow cytometry analysis (reference value: 0.97 %); type: functional
Eca-109/VCR [12] = assay: Antiproliferative activity against human Eca-109/VCR cells assessed as reduction in cell viability at 10 uM incubated for 48 hrs by CCK-8 assay; type: functional, cell-based
Eca-109/VCR [13] = assay: Inhibition of colony formation in human Eca-109/VCR cells at 0 to 12 nM incubated for 48 hrs by crystal violet staining based assay; type: functional, cell-based; conditions: dose 0-12 nM

SMILES | viability at 5 µM (Eca-109/VCR [1]) [%] | Ratio IC50 (Eca-109/VCR [2]) | also measured
CCOC(=O)C1C2c3ccc([N+](=O)[O-])cc3C(=O)C2C(c2ccco2)C12C(=O)N(C)c1ccccc12 (stereo not given) | 102 | 12.7 | –
CCOC(=O)C1C2c3c(cccc3[N+](=O)[O-])C(=O)C2C(c2ccccc2)C12C(=O)N(C)c1ccccc12 (stereo not given) | 102 | 10.5 | –
CN1C(=O)C2(c3cc(Br)ccc31)C(C(=O)OC(C)(C)C)C1c3ccc([N+](=O)[O-])cc3C(=O)C1C2c1ccccc1 (stereo not given) | 105 | 2.9 | –
CCOC(=O)C1C2c3ccc([N+](=O)[O-])cc3C(=O)C2C(c2cccc(OC)c2)C12C(=O)N(C)c1ccccc12 (stereo not given) | 99.7 | 3 | –
CS(=O)(=O)CCNCc1ccc(-c2ccc3ncnc(Nc4ccc(OCc5cccc(F)c5)c(Cl)c4)c3c2)o1 [LAPATINIB] | – | – | IC50 (ECa-109 cell line): 9.16 µM; IC50 (Eca-109/VCR [3]): 6.69 µM
CC(=O)O[C@@]12CO[C@@H]1C[C@H](O)[C@@]1(C)C(=O)[C@H](O)C3=C(C)[C@@H](OC(=O)[C@H](O)[C@@H](NC(=O)OC(C)(C)C)c4ccccc4)C[C@@](O)([C@@H](OC(=O)c4ccccc4)[C@H]21)C3(C)C [DOCETAXEL ANHYDROUS] | – | – | IC50 (ECa-109 cell line): 0.773 µM; IC50 (Eca-109/VCR [3]): 9.73 µM
CN1C(=O)C2(c3ncccc31)C(C(=O)OC(C)(C)C)C1c3ccc([N+](=O)[O-])cc3C(=O)C1C2c1ccccc1 (stereo not given) | 104 | 33.6 | –
O=C1c2cc([N+](=O)[O-])ccc2C2C1C(c1ccccc1)C1(Oc3ccccc3C1=O)C2c1ccccc1 (stereo not given) | 99.1 | 15.2 | –
CCOC(=O)C1C2c3ccc([N+](=O)[O-])cc3C(=O)C2C(c2ccccc2)C12C(=O)N(C)c1c(C)cc(C)cc12 (stereo not given) | 89.7 | 2.3 | –
O=C1c2cc([N+](=O)[O-])ccc2C2C1C(c1ccccc1)C([N+](=O)[O-])C2c1ccccc1 (stereo not given) | 78.2 | 49.9 | –
COc1ccc(CCN(C)CCCC(C#N)(c2ccc(OC)c(OC)c2)C(C)C)cc1OC (stereo not given) [VERAPAMIL] | 98.9 | 107.9 | Activity (Eca-109/VCR [4]): 12.1%; Activity (Eca-109/VCR [5]): 3.05%; Activity (Eca-109/VCR [6]): 0.049%; viability at 5 µM (Eca-109/VCR [7]): 83.6%; Activity (Eca-109/VCR [8]): 3.93%; Activity (Eca-109/VCR [9]): 0.32%; viability at 5 µM (Eca-109/VCR [10]): 94%; Activity (Eca-109/VCR [11]): 2.86%
CCOC(=O)C1C2c3ccc(-n4cc(-c5ccccc5)nn4)cc3C(=O)C2C(c2ccccc2)C12C(=O)N(C)c1ccccc12 (stereo not given) | 98.9 | 56.1 | –
CCOC(=O)C1C2c3ccc([N+](=O)[O-])cc3C(=O)C2C(c2cccc(C)c2)C12C(=O)N(C)c1ccccc12 (stereo not given) | 102 | 56.7 | –
CCOC(=O)C1C2c3ccc([N+](=O)[O-])cc3C(=O)C2C(C2CC2)C12C(=O)N(C)c1ccccc12 (stereo not given) | 96.2 | 2.5 | –
CCOC(=O)C1C2c3ccc([N+](=O)[O-])cc3C(=O)C2C(c2ccc(Br)cc2)C12C(=O)N(C)c1ccccc12 (stereo not given) | 85.1 | 11.7 | –
CN1C(=O)C2(c3ccccc31)C(C(=O)OC(C)(C)C)C1c3ccc([N+](=O)[O-])cc3C(=O)C1C2c1ccccc1 (stereo not given) | 103 | 56.1 | –
CCOC(=O)C1C2c3ccc([N+](=O)[O-])cc3C(=O)C2C(c2ccc(C(F)(F)F)cc2)C12C(=O)N(C)c1ccccc12 (stereo not given) | 97.9 | 39.2 | –
CCOC(=O)C1C2c3ccc([N+](=O)[O-])cc3C(=O)C2C(c2ccccc2)C12C(=O)N(C)c1ccc(OC)cc12 (stereo not given) | 99.4 | 16.4 | –
O=C1c2cc([N+](=O)[O-])ccc2C2C1C(c1ccccc1)C1(Cc3ccccc3C1=O)C2c1ccccc1 (stereo not given) | 85.2 | 34.8 | –
CN1C(=O)C2(c3cc(F)ccc31)C(C(=O)OC(C)(C)C)C1c3ccc([N+](=O)[O-])cc3C(=O)C1C2c1ccccc1 (stereo not given) | 101 | 6.6 | –

SMILES | viability at 5 µM (Eca-109/VCR [1]) [%] | Ratio IC50 (Eca-109/VCR [2]) | also measured
CCOC(=O)C1C2c3ccc([N+](=O)[O-])cc3C(=O)C2C(c2ccccc2C)C12C(=O)N(C)c1ccccc12 (stereo not given) | 92.2 | 14.7 | –
CCOC(=O)C1C2c3ccc([N+](=O)[O-])cc3C(=O)C2C(c2ccccc2)C12C(=O)N(C)c1ccccc12 (stereo not given) | 102 | 86.8 | –
CN1C(=O)[C@@]2(c3cc(Cl)ccc31)[C@H](c1ccccc1)[C@H]1C(=O)c3cc([N+](=O)[O-])ccc3[C@H]1[C@@H]2C(=O)NC(C)(C)C | 96.7 | 471.3 | Activity (Eca-109/VCR [12]): inactive
CCOC(=O)C1C2c3ccc([N+](=O)[O-])cc3C(=O)C2C(c2ccc(C)cc2)C12C(=O)N(C)c1ccccc12 (stereo not given) | 102 | 24.7 | –
O=C1c2cc([N+](=O)[O-])ccc2C2C1C(c1ccccc1)C(C(=O)c1ccccc1)C2C(F)(F)F (stereo not given) | 56.3 | – | –
COc1cc2c(c(OC)c1OC)-c1ccc(OC)c(=O)cc1[C@@H](NC(C)=O)CC2 [COLCHICINE] | – | – | IC50 (ECa-109 cell line): 0.012 µM; IC50 (Eca-109/VCR [3]): 3.63 µM
COc1cccc2c1C(=O)c1c(O)c3c(c(O)c1C2=O)C[C@@](O)(C(=O)CO)C[C@@H]3O[C@H]1C[C@H](N)[C@H](O)[C@H](C)O1 [DOXORUBICIN] | – | – | IC50 (ECa-109 cell line): 2.07 µM; IC50 (Eca-109/VCR [3]): 20.2 µM
CCOC(=O)C1C2c3ccc(Br)cc3C(=O)C2C(c2ccccc2)C12C(=O)N(C)c1ccccc12 (stereo not given) | 100 | 16.7 | –
CCOC(=O)C1C2c3ccc([N+](=O)[O-])cc3C(=O)C2C(c2ccccc2Br)C12C(=O)N(C)c1ccccc12 (stereo not given) | 96.4 | 1.8 | –
CC[C@]1(O)C[C@H]2CN(CCc3c([nH]c4ccccc34)[C@@](C(=O)OC)(c3cc4c(cc3OC)N(C=O)[C@H]3[C@@](O)(C(=O)OC)[C@H](OC(C)=O)[C@]5(CC)C=CCN6CC[C@]43[C@@H]65)C2)C1 | – | – | inhibition (Eca-109/VCR [13]): inactive
COc1cc2c(cc1OC)CN(CCc1ccc(NC(=O)c3cc(OC)c(OC)cc3NC(=O)c3cnc4ccccc4c3)cc1)CC2 [TARIQUIDAR] | 84.8 | 364.3 | Activity (Eca-109/VCR [4]): 13.8%; Activity (Eca-109/VCR [5]): 3.35%; Activity (Eca-109/VCR [6]): 0.1%; viability at 5 µM (Eca-109/VCR [7]): 79%; Activity (Eca-109/VCR [8]): 6.59%; Activity (Eca-109/VCR [9]): 0.68%; viability at 5 µM (Eca-109/VCR [10]): 92.3%; Activity (Eca-109/VCR [11]): 4.28%
CN1C(=O)C2(c3cc(Cl)ccc31)C(C(=O)OC(C)(C)C)C1c3ccc([N+](=O)[O-])cc3C(=O)C1C2c1ccccc1 (stereo not given) | 98.2 | 388.1 | –
CCOC(=O)C1C2c3ccc([N+](=O)[O-])cc3C(=O)C2C(c2ccccc2)C12C(=O)N(C)c1cc(OC)ccc12 (stereo not given) | 90.5 | 53.2 | –
CCOC(=O)C1C2c3ccc([N+](=O)[O-])cc3C(=O)C2C(c2ccccc2)C12C(=O)N(C)c1c(C)cccc12 (stereo not given) | 102 | 38.9 | –
CN1C(=O)C2(c3cc(Cl)ccc31)C(C(=O)NC(C)(C)C)C1c3ccc([N+](=O)[O-])cc3C(=O)C1C2c1ccccc1 (stereo not given) | 97.5 | 659.1 | –
CN1C(=O)C2(c3cccc(Br)c31)C(C(=O)OC(C)(C)C)C1c3ccc([N+](=O)[O-])cc3C(=O)C1C2c1ccccc1 (stereo not given) | 99.8 | 38.6 | –
COC(=O)C1C(C(=O)c2ccccc2)C(c2ccccc2)C2C(=O)c3cc([N+](=O)[O-])ccc3C12 (stereo not given) | 75.2 | 12.3 | –
O=C1c2c(O)ccc(O)c2C(=O)c2c(NCCNCCO)ccc(NCCNCCO)c21 [MITOXANTRONE] | – | – | IC50 (ECa-109 cell line): 0.646 µM; IC50 (Eca-109/VCR [3]): 5.87 µM
CCOC(=O)C1C2c3ccc([N+](=O)[O-])cc3C(=O)C2C(c2ccccc2)C12C(=O)N(C)c1ccc(OC(F)(F)F)cc12 (stereo not given) | 91.9 | 1.7 | –
O=C1c2cc([N+](=O)[O-])ccc2C2C1C(c1ccccc1)C1(C(=O)c3ccccc3C1=O)C2c1ccccc1 (stereo not given) | 96.6 | 57.1 | –

From ChEMBL document CHEMBL5532696, “Discovery of new tricyclic spiroindole derivatives as potent P-glycoprotein inhibitors for reversing multidrug resistance enabled by a synthetic methodology-based library” (RSC Med Chem, 2024)
